According to ChEMBL document CHEMBL5604062, “ASAP - ZIKV NS2B-NS3 protease fluorescence dose response” (2024):
Several values for one entry are separate records, joined by “and”; a condition that tells them apart may be missing. Equal entries are not always repeated.

These compounds were tested against Nonstructural protein 3 (Zika virus, UniProt A0A024AXB9) (assay: Functional biochemical assay to identify treatments for viral infectious disease that targets Zika NS2B-NS3 protease. Utilizing a direct enzyme activity measurement method, reading the fluorescence intensity is used to characterize the relative potency of inhibitors as IC50.).
Sequence of Nonstructural protein 3 (A0A024AXB9 whole entry): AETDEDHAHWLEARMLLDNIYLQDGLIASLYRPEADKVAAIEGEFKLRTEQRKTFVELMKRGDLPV
Parameters: species or system PRVABC59

SMILES	IC50
C[C@H]1C[C@@H](C(=O)Nc2cccc(CN)c2)CC(=O)N1	> 99.5 µM
O=Cc1ccc(N2CCC(C(=O)NCCc3ccc(O)c(O)c3)CC2)cc1	55.9 µM
CNCc1cccc(NC(=O)c2cc(Cl)cc3[nH]ncc23)c1	4.8 µM
O=C1Cc2c(cccc2C(=O)N[C@H]2CCC23CCOCC3)N1	> 25 µM
N#C[C@H](Nc1cncc(-c2nn[nH]n2)c1)c1cc(Cl)cc(NC(=O)OCc2ccccc2)c1	51.9 µM
NC[C@H]1CC[C@H](CNC(=O)c2cc(Cl)cc(NC(=O)OCc3ccccc3)c2)CC1	25.4 µM and 25.7 µM
O=C(Nc1ccc2c(c1)CNC2)c1cccc2[nH]c(=O)[nH]c12	0.068 µM and 0.064 µM
CC(C)COc1ccc(Cl)cc1C(=O)Nc1ccc2c(c1)CNC2	2.29 µM
c1ccc(-c2[nH]c3ccccc3c2CN2CCC(c3cscn3)CC2)cc1	34.4 µM
O=C(Nc1ccc2c(c1)CNC2)c1cc(Cl)cc(-n2cccc2)c1	0.091 µM and 0.084 µM
O=C(Nc1ccc2c(c1)CNC2)c1cc(Cl)cc2[nH]c(C3(n4ccnn4)CC3)nc12	0.765 µM
CC(C)[C@H](CC(=O)O)NC(=O)c1cc(Cl)cc(NC(=O)OCc2ccccc2)c1	> 99.5 µM
O=C(Nc1ccc2c(c1)CNC2)c1cc(F)cc2[nH]c(CC[C@H]3CCCOC3)nc12	0.135 µM
CC(C)c1cc(-c2ccc([C@@H](NC(=O)OCc3ccccc3)C(=O)Nc3cccc(CN)c3)cc2)on1	24 µM
Cc1c(C(=O)Nc2cccc(CCN)c2)cc(C2CC2)n1C	88.3 µM
O=C1Cc2c(cccc2C(=O)NC2(c3ncccc3F)CC2)N1	> 25 µM
COc1cc(OC)cc([C@H]2CCN(C(=O)Nc3ccc4c(c3)CNC4)C2)c1	> 25 µM
O=C(Nc1ccc2c(c1)CNC2)c1cc(F)cc(-c2ccnn2CC2CC2)c1	1.07 µM
Nc1n[nH]c2cc(C(=O)Nc3ccc4c(c3)CNC4)ccc12	> 25 µM
O=C(O)c1cc(Cl)cc(NS(=O)(=O)c2ccc(-c3ccc(F)cc3)cc2)c1	75.7 µM
Cc1c(C(=O)Nc2ncc3c(c2C#N)CCOC3)cc(C2CC2)n1C	> 25 µM
C[C@H](NC(=O)c1cc(Cl)cc2[nH]ncc12)c1ccc2c(c1)CNC2	1.28 µM
C=C1C[C@H](c2cccc(CN)c2)[C@@H](c2cc(Cl)cc(NC(=O)OCc3ccccc3)c2)C1	> 25 µM
COc1ncccc1-c1cccc([C@H](NC(=O)OCc2ccccc2)C(=O)Nc2cccc(CN)c2)c1	67.4 µM
O=C(N[C@H](C(=O)NCc1cccc(CC(F)(F)F)c1)c1ccc(OCc2ccccc2)cc1)OCc1ccccc1	> 99.5 µM
O=C(Nc1ccc2c(c1)CNC2)c1cc(F)c2[nH]nnc2c1	> 25 µM

SMILES	IC50
CC[C@@H](C)c1nc(C)cc(N2CCC(n3ncc(N)c3C(F)(F)F)CC2)n1	> 99.5 µM
CC(C)c1nnc(-c2nc3c(C(=O)Nc4ccc5c(c4)CNC5)cc(F)cc3[nH]2)s1	0.161 µM and 0.559 µM
NCCCc1ccc(F)c(NC(=O)c2cc(Cl)cc(NC(=O)OCc3ccccc3)c2)c1	6.27 µM
COCCCC(=O)N1CCC([C@H](NC(=O)OCc2ccccc2)C(=O)Nc2cccc(CN)c2)CC1	> 99.5 µM
CCn1cc(-c2ccc3c(c2)CCNC3)nc(N2CC[C@@H](CO)C2)c1=O	> 99.5 µM
c1ccc2c(Cc3ccc(-c4nnn[nH]4)cc3)c[nH]c2c1	> 99.5 µM
Cc1c(C(=O)Nc2cc(C(=O)N3CCCNC(=O)C3)ccn2)cc(C2CC2)n1C	> 25 µM
NCc1cccc(NC(=O)c2cc(NC(=O)OCc3ccccc3)c(=O)n3c2CCCC3)c1	> 99.5 µM
CCn1cc(C(=O)NCc2ccccc2)nc(N2CC[C@@H](CO)C2)c1=O	> 99.5 µM
C=CC[C@H]1NCc2cc(NC(=O)c3cc(Cl)cc4[nH]ncc34)ccc21	0.449 µM
NCc1ccccc1C1CCN(C(=O)[C@@]23CNC[C@]2(C(F)(F)F)C3)CC1	> 99.5 µM
Cc1cc(C(=O)Nc2cccc(CN)c2)nc2c(C(C)C)cnn12	> 99.5 µM
C[C@H](CC(=O)O)N(C)C(=O)c1cc(Cl)cc(NC(=O)OCc2ccccc2)c1	> 99.5 µM
CCC1CN(C(=O)c2cc(Cl)ccc2NS(=O)(=O)c2ccc(Oc3ccccc3Cl)cc2)C1	> 99.5 µM
N#CCc1cccc(NC(=O)c2cc(Cl)cc(NC(=O)OCc3ccccc3)c2)c1	> 99.5 µM
O=C(N[C@@H](C(=O)Nc1nc2c(s1)CNC2)c1ccc(OCc2ccccc2)cc1)OCc1ccccc1	> 99.5 µM
Cc1ccc(S(=O)(=O)CCCn2ccc3sccc3c2=O)cc1	> 99.5 µM
O=C(NCc1cnn(CCO)c1)c1cccc2c1NC(=O)[C@]1(CCCN1)C2	> 99.5 µM
O=C(Cn1ccnc(N2CC[C@H](CO)C2)c1=O)NCc1cccs1	> 99.5 µM
O=C1Cc2cc(C(=O)Nc3ccc4c(c3)CNC4)ccc2N1	2.41 µM and 6.85 µM
CCNC(=O)[C@@H](NC(=O)OCc1ccccc1)c1ccc(OCc2ccccc2)cc1	> 99.5 µM
Cc1c(C(=O)Nc2cc(-c3cccnc3)ccn2)cc(C(C)C)n1C	> 25 µM
O=C(O)c1sc2cccnc2c1Br	> 99.5 µM
CCCN1C(=O)[C@](Nc2ccc3c(c2)CNC3)(C(=O)NC)c2cc(Cl)ccc21	> 25 µM
c1cc(CN2CCC(c3c[nH]c4cccnc34)CC2)c2[nH]ncc2c1	> 99.5 µM
COc1cc(-c2cc(NC(=O)c3cc(F)cc4[nH]ncc34)cc3c2CNC3)ccn1	0.033 µM and 0.03 µM and 0.023 µM

SMILES	IC50
O=C(Nc1ccc2c(c1)CNC2)c1ncnc2ccsc12	> 99.5 µM
Cc1ccc(S(=O)(=O)N2Cc3ccccc3C[C@@H](C(=O)Nc3cccc(CN)c3)C2)cc1	43.6 µM
N#Cc1csc2cc(C(=O)Nc3ccc4c(c3)CNC4)ccc12	0.466 µM
C[C@H](C(=O)O)N(C)C(=O)c1cc(Cl)cc(NC(=O)OCc2ccccc2)c1	> 99.5 µM
N#Cc1ccc(S(=O)(=O)CCn2nc(-c3ccco3)oc2=O)cc1	> 99.5 µM
CCNC(=O)c1ccc2c(c1)nc(N1CC[C@H](CO)C1)c(=O)n2CC	> 99.5 µM
NCc1cc(NS(=O)(=O)c2ccc(Oc3ccccc3Cl)cc2)ccc1Cl	> 99.5 µM
O=C(C(=O)N1CCOCC1)c1c[nH]c2ccccc12	> 99.5 µM
CCn1c(=O)c(N2CCC[C@H]2c2noc(C)n2)nc2ccccc21	> 99.5 µM
CC(C)[C@H](NC(=O)[C@@H]1CCCN1C(=O)OCc1ccccc1)P(=O)(Oc1ccc(F)cc1)Oc1ccc(F)cc1	> 99.5 µM
C[C@H]1CN(C)C[C@@H](C(=O)Nc2cccc(CN)c2)O1	> 99.5 µM
O=C(Nc1ccc2c(c1)CN[C@H]2CCO)c1cc(F)cc2[nH]ncc12	0.116 µM
O=C(Nc1ccc2c(c1)CNC2)c1cccc2c1OCCN2	8.24 µM
CCn1cc(-c2cccc(-n3cccn3)c2)nc(N2CC[C@@H](CO)C2)c1=O	> 99.5 µM
NCc1ccc(-c2csc3cc(C(=O)Nc4ccc5c(c4)CNC5)ccc23)cc1	0.888 µM and 0.889 µM
O=C(O)c1cc(Cl)ccc1NS(=O)(=O)c1ccc(-c2ccncc2)cc1	> 99.5 µM
NCc1cccc(S(=O)(=O)Nc2cc(Cl)cc(NC(=O)OCc3ccccc3)c2)c1	> 99.5 µM
NCc1cccc(CNC(=O)[C@H]2[C@H]3CCCCC[C@H]3[C@H]2NC(=O)OCc2ccccc2)c1	12.3 µM and 59.6 µM and 27 µM
Cc1n[nH]c2cc(C(=O)N3CCC(C)(NC(=O)[C@H]4C[C@H](N(C)C)C4)CC3)ccc12	> 99.5 µM
COC[C@]1(c2nc3c(C(=O)Nc4ccc5c(c4)CNC5)cc(F)cc3[nH]2)CCOC1	0.344 µM
O=C(Nc1ccc2c(c1)CNC2)c1cccc2c1OCO2	2.87 µM
O=S(=O)(c1c[nH]c2ccccc12)N1CCC(c2cnc3ccc[nH]c2-3)CC1	> 99.5 µM
O=C(Nc1cc(Cl)cc(-c2cnn(Cc3ccc(C(=O)O)cc3)c2)c1)OCc1ccccc1	39.4 µM
O=C(Nc1cc(Cl)cc(C(=O)N2CCC[C@H](c3nnn[nH]3)C2)c1)OCc1ccccc1	> 99.5 µM
NCc1cccc(NC(=O)[C@@H](NC(=O)OCc2ccccc2)C2CCN(Cc3ccncc3)CC2)c1	> 99.5 µM
O=C(Nc1ccc2c(c1)CNC2)c1cc(Cl)cc2[nH]c(-c3ncnn3C3CC3)nc12	0.312 µM

SMILES	IC50
Cc1n[nH]cc1-c1ccc([C@@H](NC(=O)OCc2ccccc2)C(=O)Nc2cccc(CN)c2)cc1	> 99.5 µM
CCn1c(=O)c(N2CC[C@H](CO)C2)nc2cc(C(=O)N(C)C)ccc21	> 99.5 µM
O=C1Cc2cc(NC(=O)c3cc(Cl)cc(NC(=O)OCc4ccccc4)c3)ccc2N1	> 99.5 µM
C=CC[C@H]1NCc2cc(N[C@H](C(=O)NCC(F)F)c3cc(Cl)cc(C4CC4)c3)ccc21	0.21 µM
NC[C@H]1OCCc2sc(C(=O)Nc3cc(-c4cccnc4)ccn3)cc21	> 25 µM
Cc1ccc(-c2cc(CN)cc([C@@H]3C[C@H]3c3cc(Cl)cc(NC(=O)OCc4ccccc4)c3)c2)cn1	3.56 µM
O=C(O)c1cc(F)c(F)c(F)c1NS(=O)(=O)c1ccc(Oc2ccccc2Cl)cc1	88.8 µM
O=C(N[C@@H]1CCc2cn[nH]c2C1)c1cccc2c1NC(=O)[C@]1(CCCN1)C2	> 99.5 µM
NCc1cccc(NC(=O)[C@@H](NC(=O)OCc2ccccc2)c2cccc(-c3ccc(N)nc3)c2)c1	43.6 µM
O=C(O)c1cc(NS(=O)(=O)c2ccc(Oc3ccccc3Cl)cc2)ccc1Cl	> 99.5 µM
Clc1ccc2c(CN3CCC(c4c[nH]c5ncccc45)CC3)c[nH]c2c1	24.9 µM
O=C(Nc1ccc2c(c1)CNC2)c1cccc(-c2cnco2)c1	1.83 µM
CCn1c(=O)c(N2CC[C@H](CO)C2)nc2cc(C(N)=O)ccc21	> 99.5 µM
N[C@H]1CCc2ccc(NC(=O)c3cc(Cl)cc(NC(=O)OCc4ccccc4)c3)cc21	8.42 µM
C[C@H]1CNC[C@@H]1c1ccc(NC(=O)c2cc(Cl)cc(NC(=O)OCc3ccccc3)c2)cc1	7.26 µM
CN1Cc2ccc(NC(=O)c3cc(Cl)cc4[nH]ncc34)cc2C1	0.832 µM
c1coc(CSCc2nc(-c3nc[nH]n3)no2)c1	> 99.5 µM
C=CC[C@H](Nc1cccc(Cl)c1)c1cccc(-c2nn[nH]n2)c1	> 99.5 µM
COc1cc(C(=O)Nc2cccc(CN)c2)cc(NC(=O)OCc2ccccc2)c1Cl	38.1 µM
N[C@H]1COC[C@H]1n1cc(C(=O)Nc2cc(-c3cccnc3)ccn2)cn1	> 25 µM
O=C(Nc1cc(-c2cccnc2)ccn1)c1nnc(C2CC2)s1	> 25 µM
CC(C)Oc1ccc(S(=O)(=O)Nc2ccc(Cl)cc2C(=O)O)cc1	> 99.5 µM
NCc1cccc(NC(=O)[C@H](NC(=O)C2CCCCC2)c2ccc(OCc3ccccc3)cc2)c1	22.3 µM and 20 µM
Cc1ccc(-n2nc(C(=O)Nc3cccc(CN)c3)ccc2=O)cc1Cl	> 99.5 µM
